In US11517630B2, “Methods and compositions for regulating gene expression” (Children's Medical Center Corporation, priority 2005, dated 2022):

Experiments:
[1] = test system: mutant (TGA-containing) Apo CII-luc fusion reporter in FG293 cells; assay: In vitro luciferase assay: suppression of translational termination in FG293 cells transduced with mutant Apo CII-luc lentiviral vector; format: cell-based, human; conditions: for ability to induce luciferase expression (suppression of translation termination codons): 0 to 1000 μg/ml, mutant luc fusion; for fold of induction: 5 μg/ml; for % of wild-type luc activity: 200 μg/ml
Method: FG 293 cells were infected with viral supernatants at a multiplicity of infection (MOI) of 10. After 72 hours, cells were then split into six well plates, exposed to various concentrations of G1418 for 48 hours, and lysed. Protein extracts were then assayed for luciferase expression using the Promega Luciferase Assay System.
(§1) To facilitate quantitative measurement of both spontaneous read-through of specific termination codon configurations and the ability of specific antibiotics to suppress translational termination, a luciferase (luc) reporter gene was generated in which the first five codons of either WT mutant MIA-containing) Apo CII sequences were fused to luc coding sequences, and the resulting sequences were introduced into a standard lentiviral vector (FIG. 1B). High-titer virus generated from the vectors was used to infect human FG293 cells at a multiplicity of infection (MOI) of 10, so that virtually 100% of the cells would be stably transduced. Cells were then split into six well plates, exposed to varying concentrations of the aminoglycoside (G418) for 48 hours, and then lysed and assayed for luc expression. […] In contrast, cells transduced by vectors encoding the mutant Apo CII-luc expressed only low levels of luc in the absence of G418 (approximately 1.2% the activity of the wild type), but could be induced to strongly express luc by the addition of the antibiotic (FIG. 2B). […] The efficiency of suppression of translational termination was extremely high (over 70% of the level of wild-type reporter expression observed in the absence of the nonsense codon).
as §1, with “(TGA-containing)” for “MIA-containing)”
One of the expected characteristics of the gene regulation system described here is the ability to rapidly achieve induction of transgene expression, since (as indicated above) transcription is constitutive and therefore induction of gene expression should depend only upon the restoration of fall translation of the transgene coding sequences. To address this issue, we employed the transduced cells described above, and measured the level of reporter activity after G418 administration (200 μg/ml) as a function of time.
Compounds were tested in vitro using stable cell lines generated via the infection of FG293 cells with lentiviral vectors carrying either WT or mutant Apo CII luc sequences. The aminoglycosides were tested over a concentration range from 0 to 1000 μg/ml.

[2] = test system: mutant Apo CII-luc in murine lung tissue; assay: In vivo luc induction in murine lung after intratracheal delivery of lentiviral vector, bioluminescent imaging; conditions: 1.5 mg daily, 4 days, average of five mice
Method: For intratracheal infections, nude mice were anaesthesized and then 100 μl of concentrated virus was delivered upon normal inhalation via a blunt-ended 16-gauge needle inserted in such a way to depress the tongue.
(§2) Prior to imaging, mice were anaesthesized and injected with 150 μl luciferin (30 mg/ml) (Xenagen, Alameda, Calif.). A series of bioluminescent images were then taken for up to 30 minutes using the Xenogen IVIS imager. Photon output was quantified at the plateau of the time-course using the Living Image software. Induction in fold was calculated based on the photon output in the animals before and after drug treatment.
To further establish the general applicability of the gene […] system, we next asked whether gene regulation at the level of translation could be readily accomplished in the in vivo setting. In a first animal model, intratracheal delivery (see Materials and Methods) of a lentiviral vector carrying WT or mutant Apo CII-luc sequences was utilized in order to assess the ability to regulate luc expression in murine lung tissue via aminoglycoside administration. Five days post transduction, prior to administration of aminoglycoside, mice were imaged for luc expression using the Xenogen IVIS non-invasive bioluminescent imager (29). […]

[3] = test system: mutant Apo CII-luc in hematopoietic cells; assay: In vivo luc induction in murine bone marrow transplantation model (transduced hematopoietic stem cells); parameters: species or system mice; conditions: 1.5 mg/day for 3.5 days, four mutant luc animals
Method: Purified HSC were obtained by isolating bone marrow SP cells using fluorescence activated cell sorting after Hoechst staining as previously described (10), with some modifications. Briefly, femurs and tibias from mice were homogenized, and the bone marrow cells were filtered through 70 μm nylon mesh and washed in PBS containing 2% FCS and 0.5% Sodium Azide. Cells were then resuspended in HBSS containing 2% FCS, 10 mM Hepes buffer and antibiotics (all from Gibco, Grand Island, N.Y.) and 8.8 μg/ml Hoechst 33342 (Molecular Probes, Eugene, Oreg.) at a cell concentration of 5×10^6/ml. Following incubation for 90 min at 37° C., cells were washed once and further purified by using a gradient of Ficoll-Paque™ Plus (Amersham Biosciences AB, Uppsala) to remove red blood cells. Purified marrow cells were then sorted using a MoFlo high speed cell sorter (DakoCytomation, Fort Collins, Col.). Except when specified, cells were kept on ice during the entire procedure. […]
as §2, with “A series of bioluminescent images were then taken for up to 30 minutes using the Xenogen IVIS imager.” left out, “treatment. […]” for “treatment.”

[4] = Acute toxicity at concentrations used to regulate gene expression in cell lines and animals
Excerpt: Overall, the system described here represents a remarkably simple means of controlling the expression of genes in mammalian cells that should have immediate experimental applications. While the range of inducibility obtainable with the system (in some cases over 60 fold) is considerably more limited than that of gone regulation systems based on the control of transcription or RNA self-cleavage, the ability to fine-tune the basal and induced levels of gene expression via use of specific termination codons and adjacent sequences may mitigate this limitation in many experimental situations. […] Similarly, others have shown that G418 can be used at relatively non-toxic doses to suppress nonsense mutations in cell lines and in animal models of inherited disease (25, 35). […] The availability of such molecules for experimental studies in the future should further expand the utility of translation-based gene regulation strategies.

[5] = mice; cited from earlier work

NC[C@@H]1O[C@H](O[C@H]2[C@@H](O)[C@H](O[C@@H]3[C@@H](O)[C@H](N)C[C@H](N)[C@H]3O[C@H]3O[C@H](CO)[C@@H](O)[C@H](O)[C@H]3N)O[C@@H]2CO)[C@H](N)[C@@H](O)[C@@H]1O [paromomycin]
ability to induce luciferase expression (suppression of translation termination codons) ([1]; 48 hours, FG293 cells): only weak induction

CC(C)(C)c1ccc(OCC(=O)Nc2cccc(C(=O)O)c2)cc1 [3-[2-(4-tert-butyl-phenoxyl)-acetylamino]-benzoic acid]
fold of induction ([1]; FG293 cells): about 14%

CCC(C)(C)c1ccc(OCC(=O)Nc2cccc(C(=O)O)c2)cc1 [3-{2-[4-(1,1-dimethyl-propyl)-phenoxyl]acetylamino}-benzoic acid]
fold of induction ([1]; FG293 cells): about 24%

NCC[C@H](O)C(=O)N[C@@H]1C[C@H](N)[C@@H](O[C@H]2O[C@H](CN)[C@@H](O)[C@H](O)[C@H]2O)[C@H](O)[C@H]1O[C@H]1O[C@H](CO)[C@@H](O)[C@H](N)[C@H]1O [amakacin]
ability to induce luciferase expression (suppression of translation termination codons) ([1]; 48 hours, FG293 cells): only weak induction

CN[C@@H]1[C@@H](O)[C@@H](O[C@@H]2[C@@H](O)[C@H](O[C@H]3O[C@H]([C@@H](C)O)[C@@H](O)[C@H](O)[C@H]3N)[C@@H](N)C[C@H]2N)OC[C@]1(C)O [G418]
% of wild-type luc activity ([1]; 1 hour post induction): 1.4% | % of wild-type luc activity ([1]; 6 hours post induction): 6.1% | % of wild-type luc activity ([1]; 12 hours post induction): 25.3% | % of wild-type luc activity ([1]; 24 hours post induction): 38.1% | % of wild-type luc activity ([1]; 48 hours post exposure): 51.3% | efficiency of suppression of translational termination, % of wild-type reporter expression ([1]; 300 μg/ml, 48 hours, FG293 cells): over 70% | increase in reporter (luc) expression relative to the uninduced state, maximum induction ([1]; 300 μg/ml, 48 hours, FG293 cells, mutant Apo CII-luc): approximately 60 fold | fold induction at 200 µg/mL ([1]; Homo sapiens, 48 h, read-out: fold induction of luc (maximal induction)): 60 | luciferase expression, % of level in WT luc mice [2]: 27% | induced level, % of expression in WT luc mice [3]: ~51% | fold induction at 1.5 mg ([3]; Mus musculus, Hematopoietic stem cell, 84 h, read-out: average fold induction of luc expression): 65 | acute toxicity at concentrations used [4]: not acutely toxic

NC[C@H]1O[C@H](O[C@H]2[C@H](O)[C@@H](O[C@H]3O[C@H](CO)[C@@H](O)[C@H](N)[C@H]3O)[C@H](N)C[C@@H]2N)[C@H](N)C[C@@H]1O [tobramycin]
ability to induce luciferase expression (suppression of translation termination codons) ([1]; 48 hours, FG293 cells): only weak induction

gentamicin
ability to induce luciferase expression (suppression of translation termination codons) ([1]; 48 hours, FG293 cells): only weak induction

gentamycin sulfate
effective dosage [5]: 17 mg/kg
